Converted amounts (≈) assume the structure as drawn. Read-outs that look alike come from different tables or passages of the source. Marks after values point to notes of the source that are not given here.
Legend:
MSV = format: in vivo; conditions: for Number of Mice not Developing a Tumor (percent): intraperitoneal, 5 daily doses, newborn NMRI mice
C3H cells = assay: Alteration of C3H cell morphology (minimal inhibitory concentration); format: cell-based, murine; conditions: Table 2, footnote c
[1] = as above; format: cell-based, murine; conditions: mouse, microscopically visible alteration of cell morphology, > means no visible toxicity at the indicated concentration, read-out: CC50 C3H (minimal inhibitory concentration)
HIV-2(ROD) [2] = assay: HIV-2(ROD)-induced cytopathicity in MT-4 cell cultures; format: cell-based
Text: (§1) Viruses. The origins of MSV, HIV type 1 (HIV-1) (strain IIIB and Ba-L), HIV-2 (strain ROD) and FIV (strain Petaluma) have been described previously (Balzarini et al., AIDS 5: 21-28, 1991; De Clercq et al., Proc. Soc. Exp. Biol. Med. 137:590-594, 1971; Egberink et al., Proc. Natl. Acad. Sci. 87:3087-3091, 1990; Hartmann et al., Antiviral Chem. Chemother. 5:13-19, 1994; Popovic et al., Science 224:497-500, 1984). HIV-1(IIIB) and HIV-2(ROD) stocks were obtained from supernatants of virus-infected MT-4 cell cultures. HIV-1BaL was expanded in human primary M/M, whose supernatants were collected, filtered and stored at −80° C. before use. Characteristics of viral stocks used for this study were 2.1×10^8 HIV-RNA genomes/ml (corresponding to 35 ng of p24 antigen) and 5,000 tissue culture infectious doses 50% per ml (TCID50/ml) as assessed by virus titration in other primary M/M cultures. The isolation and characterization of the clinical HIV-1 isolates L1S, L6S and L6S/PMEA has been reported (Thormar et al., Proc. Natl. Acad. Sci. USA 93:3283-3287, 1995; Van Laethem et al., AIDS 15:553-561, 2001). […] HIV-1/L6S/PMEA is the clinical isolate HIV-1/L6S that has been isolated after culturing the virus for 11 passages in the presence of increasing concentrations of PMEA (adefovir).
(§2) In vitro antiviral assays. The activity against HIV-1- and HIV-2-induced cytopathicity was examined in MT-4 cell cultures at day 5 post infection and based on the determination of cell viability by trypan blue dye staining or in CEM cell cultures at day 4 to 5 post infection and based on the microscopical examination of virus-induced giant cell formation. HIV-1 and HIV-2 were added at 100 CCID50 to the cell cultures.

Toxicity in CrFK cells = format: cell-based, feline; conditions: cat, Table 2
HIV-1(IIIB) [3] = assay: HIV-1(IIIB)-induced cytopathicity in CEM cell cultures; format: cell-based
Text: as §1, §2

[4] = Inhibition of CEM cell growth (cytostatic activity); format: cell-based; conditions: human
Protocol: (§3) Cytostatic and antimetabolic effect of acyclic nucleoside phosphonates in vitro. The assays to examine the inhibition of CEM cell growth by the test compounds have been described previously (Balzarini et al., AIDS 5:21-28, 1991). The 50% cytostatic concentration (CC50) was defined as the concentration of compound that reduced the number of living cells by 50% . To measure MT-4 cell toxicity of the test compounds, 5×10^4 MT-4 cells were incubated in the wells of 96-well microplates in the presence or absence of different concentrations of the test compounds for 5 days at 37° C. The CC50 was then calculated from the number of living cells counted under a microscope by the trypan blue exclusion method.

[5] = test system: HIV-1(IIIB) strains containing L100I, K103N, Y181C and Y188H mutations in the RT; assay: HIV-1(IIIB) strains with NNRTI-specific RT mutations in CEM cell cultures; format: cell-based; conditions: data not shown
Protocol: as §2

[6] = MT-4 cell toxicity (trypan blue exclusion); format: cell-based; conditions: human, reduction of cell viability, Table 2
Protocol: as §3

HIV-2(ROD) [7] = assay: HIV-2(ROD)-induced cytopathicity in CEM cell cultures; format: cell-based; conditions: Human immunodeficiency virus 2, CCRF-CEM, read-out: EC50 HIV-2 (ROD) (CEM)
Text: as §1, §2

HIV-1(IIIB) [8] = assay: HIV-1(IIIB)-induced cytopathicity in MT-4 cell cultures; format: cell-based; conditions: Human immunodeficiency virus 1, IIIB, MT4; Table 2
Text: as §1, §2

CEM cells = assay: Incorporation of [3H]thymidine, [3H]uridine and [3H]leucine into CEM cell material; format: cell-based; conditions: 200 μg/mL; 12 hour incubation period
Protocol: The incorporation of [methyl-^3H]thymidine, [^3H]uridine and [^3H]leucine into the methanol-insoluble CEM cell fraction was also measured in microplates. To each well were added 10^5 CEM cells, 5.9 pmol (0.25 μCi) of [methyl-^3H]thymidine, 38 pmol (1.0 μCi) of [^3H]uridine and 19 pmol (1.0 μCi) [4,5-^3H]leucine, and a given amount of the test compound. […] At the end of this incubation period, the contents of the wells (200 μl) were brought onto 25-mm glass fiber filters (type A/G; Gelman Instrument Co., Ann Arbor, Mich.) mounted on a Millipore 3025 sampling manifold apparatus. The filters were washed twice with cold PBS (phosphate-buffered saline), twice with cold 10% trichloroacetic acid, twice with cold 5% trichloroacetic acid, once with cold ethanol, and once with cold ether. The filters were then allowed to dry for 10 min at 60° C. and assayed for radioactivity in a toluene-based scintillant.

HIV-1/L6S = format: cell-based; conditions: measured against the laboratory HIV-1/IIIB strain in CEM cell cultures
Text: as §1, §2

HIV-1/L6S/PMEA = format: cell-based; conditions: measured against the laboratory HIV-1/IIIB strain in CEM cell cultures
Text: as §1, §2

HIV-1/L1S = format: cell-based; conditions: measured against the laboratory HIV-1/IIIB strain in CEM cell cultures
Text: as §1, §2

Cell viability in PBL = format: cell-based; conditions: human; reduction of cell viability; Table 2
[9] = Cell viability in monocyte/macrophages (M/M); format: cell-based, human; conditions: human; reduction of cell viability; Table 2; read-out: CC50 M/M
[10] = 20 mg/kg, premature death not taken into account
[11] = Human immunodeficiency virus 1, CCRF-CEM, HIV-1 (IIIB) in CEM, no addition, Table 3, read-out: EC50 as such
[12] = Human immunodeficiency virus 1, CCRF-CEM, HIV-1 (IIIB) in CEM, Ade 100 μM, read-out: EC50 upon addition of Ade (100 μM)
[13] = Human immunodeficiency virus 1, CCRF-CEM, HIV-1 (IIIB) in CEM, Ado 400 μM, read-out: EC50 upon addition of Ado (400 μM)
[14] = Human immunodeficiency virus 1, CCRF-CEM, HIV-1 (IIIB) in CEM, Guo 10 μM, read-out: EC50 upon addition of Guo (10 μM)
[15] = Human immunodeficiency virus 1, CCRF-CEM, HIV-1 (IIIB) in CEM, dCyd 1 mM, read-out: EC50 upon addition of dCyd (1 mM)
[16] = Human immunodeficiency virus 1, CCRF-CEM, HIV-1 (IIIB) in CEM, dThd 10 μM, read-out: EC50 upon addition of dThd (10 μM)
[17] = Human immunodeficiency virus 1, CCRF-CEM, HIV-1(IIIB)-induced cytopathicity in CEM cell cultures, Table 1, read-out: EC50 HIV-1 (CEM)
[18] = Human immunodeficiency virus 1, IIIB, CCRF-CEM, giant cell formation, mean ±SD of 2 to 4 experiments, Table 2, read-out: EC50 HIV-1 (IIIB) (CEM)

SMILES	Number of Long-Term Survivors (%) (>30 days) (MSV; 8 mg/kg)	Number of Mice not Developing a Tumor (percent) (MSV; 8 mg/kg) [%]	Number of Mice not Developing a Tumor (percent) (MSV; 20 mg/kg) [%]	Number of Long-Term Survivors (%) (>30 days) (MSV; [10])	Compound concentration at which morphological toxicity was observed, C3H (value between parentheses) (C3H cells) [μg/ml]	EC50 (HIV-1(IIIB) [3]; [11]) [µg/mL]	EC50 (HIV-1(IIIB) [3]; [12]) [µg/mL]	EC50 (HIV-1(IIIB) [3]; [13]) [µg/mL]	EC50 (HIV-1(IIIB) [3]; [14]) [µg/mL]	EC50 (HIV-1(IIIB) [3]; [15]) [µg/mL]	EC50 (HIV-1(IIIB) [3]; [16]) [µg/mL]	EC50 (HIV-1(IIIB) [3]; [17]) [µg/mL]	EC50 (HIV-1(IIIB) [3]; [18]) [µg/mL]	EC50 (HIV-1(IIIB) [8]) [µg/mL]	Inhibition of [3H]dThd, [3H]Urd and [3H]leu incorporation into TCA-insoluble CEM cell material (macromolecular synthesis) (CEM cells)	-Fold Resistance HIV-1/L6S (HIV-1/L6S) [fold]	-Fold Resistance HIV-1/L6S/PMEA (HIV-1/L6S/PMEA) [fold]	-Fold Resistance HIV-1/L1S (HIV-1/L1S) [fold]	other results
Nc1cc(SCCOCP(=O)(O)O)nc(N)n1 [Compound 2, 2,4-diamino-6-{[2-(phosphonomethoxy)ethyl]-sulfanyl}pyrimidine]	20	0	0	20	200	1.9 ± 0.75 (≈ 6.78 µM)	3.3 ± 3.2 (≈ 11.8 µM)	4.4 ± 2.8 (≈ 15.7 µM)	1.9 ± 0.49 (≈ 6.78 µM)	2.1 ± 1.7 (≈ 7.49 µM)	1.4 ± 0.21 (≈ 5 µM)	5.5 (≈ 19.6 µM)	4.6 ± 3.1 (≈ 16.4 µM)	2.5 ± 0.3 (≈ 8.92 µM)	Neither compounds 1 nor 2, nor compound 11 were inhibitory	1.4	14	2.1	Number of Long-Term Survivors (%) (>30 days) (MSV; 2 mg/kg): 0%; Number of Mice not Developing a Tumor (percent) (MSV; 2 mg/kg): 0%; Number of Mice not Developing a Tumor (percent) (MSV; 50 mg/kg): 0%; Number of Long-Term Survivors (%) (>30 days) (MSV; 50 mg/kg, premature death not taken into account): 20%; Prevention of tumor formation, in words (MSV; all doses tested): unable to prevent tumor formation; Long-term survivors (MSV; dose of 8-50 mg/kg): 20%; Delay of MSV-induced tumor formation, in words (MSV; mouse, in vivo): only showed a pronounced delay in tumor formation at a dose of 50 mg/kg; Minimal concentration causing visible cell morphology alteration ([1]; C3H/3T3 embryo fibroblast cells): > 40 µg/mL; EC50 (HIV-2(ROD) [2]; Human immunodeficiency virus 2, MT4, read-out: EC50 HIV-2 (ROD) (MT-4)): 2.9 µg/mL (≈ 10.3 µM); CC50 (Toxicity in CrFK cells; CrFK cells): 42 µg/mL (≈ 150 µM); CC50 ([4]; CEM cells, 50% cytostatic concentration, CEM cell proliferation, Table 1, read-out: CC50 (CEM)): 64 µg/mL (≈ 228 µM); CC50 ([4]; CEM cells, inhibition of cell proliferation, Table 2, read-out: CC50 CEM): 64 ± 9.8 µg/mL (≈ 228 µM); CC50 ([4]; CEM cells, read-out: CC50 for CEM cells): ~60 µg/mL (≈ 214 µM); Activity against NNRTI-specific mutant virus strains, in words [5]: retained full activity; CC50 at 5 days ([6]; MT-4 cells): ≥ 100 µg/mL; EC50 (HIV-2(ROD) [7]): 3 ± 1.4 µg/mL (≈ 10.7 µM)
Nc1ncnc2c1ncn2CCOCP(=O)(O)O [PMEA, 9-[(2-phosphono-methoxy)ethyl]adenine, reference compound]	77	44	89	94	200	0.94 ± 0.24 (≈ 3.44 µM)	1.9 ± 1.3 (≈ 6.95 µM)	1.6 ± 0.4 (≈ 5.86 µM)	1 ± 0.8 (≈ 3.66 µM)	2.1 ± 0.19 (≈ 7.69 µM)	1.4 ± 0.4 (≈ 5.12 µM)	0.96 (≈ 3.51 µM)	0.96 ± 0.24 (≈ 3.51 µM)	1.3 ± 1.1 (≈ 4.76 µM)	not inhibitory	2.7	7.3	2.0	Number of Long-Term Survivors (%) (>30 days) (MSV; 4 mg/kg): 35%; Number of Mice not Developing a Tumor (percent) (MSV; 4 mg/kg): 5%; Number of Mice not Developing a Tumor (percent) (MSV; 100 mg/kg): 100^d percent; Minimal concentration causing visible cell morphology alteration [1]: > 40 µg/mL; CC50 (Cell viability in PBL): 1.7 ± 0.4 µg/mL (≈ 6.22 µM); EC50 (HIV-2(ROD) [2]; Human immunodeficiency virus 2, MT4, Table 2, read-out: EC50 HIV-2 (ROD) (MT-4)): 1.9 µg/mL (≈ 6.95 µM); CC50 (Toxicity in CrFK cells): 18 µg/mL (≈ 65.9 µM); CC50 ([4]; 50% cytostatic concentration, CEM cell proliferation, Table 1, read-out: CC50 (CEM)): 16 µg/mL (≈ 58.6 µM); CC50 [9]: > 100 µg/mL; CC50 at 5 days [6]: 28 ± 12 µg/mL (≈ 102 µM); EC50 (HIV-2(ROD) [7]; giant cell formation, Table 2): 1.9 ± 1.1 µg/mL (≈ 6.95 µM)

— patent US20050038058A1, “Novel compounds and methods for therapy” (Institute of Organic Chemistry and Biochemistry, priority 2001, published 2005)
